Experimental data reported in US10870647B2, “Imidazopyridine derivative, method for preparing same, and pharmaceutical composition containing same as active ingredient for preventing or treating cancer” (DAEGU-GYEONGBUK MEDICAL INNOVATION FOUNDATION, priority 2016, dated 2020).

Tests used:
Assay in all cases: Kinase selectivity, scanMAX Kinase assay panel (DiscoverX), % control at 1 uM
Assay type in all cases: binding
[1] = molecular target: T1, scanMAX Kinase assay panel (Homo sapiens, UniProt Q9H2X6); conditions: HIPK2; 1 uM; read-out: Percent Control (%)
T1 construct: purchased DiscoverX
Protocol: (§1) The following experiment was performed to evaluate the inhibitory activity of the compound of the present invention on more enzymes.
(§2) Particularly, among the compounds of the present invention, the compounds of Example 1, Example 12 and Example 78 were selected and assigned to DiscoverX to measure the kinase selectivity. The experiment was performed by using scanMAX™ Kinase assay panel.
(§3) At this time, the concentration of the drug to be treated to the enzyme was adjusted to 1 uM in DMSO, and the control percentage (% control) was determined according to the following Equation 1. [Example Compound−Positive Control/Negative Control−Positive Control]×100 [Equation 1]
(§4) The enzyme selectivity of the compound of the present invention was judged to be active for the enzyme if the % control was <35 (i.e. less than 35%) for each enzyme.

[2] = molecular target: T2, scanMAX Kinase assay panel (Homo sapiens, UniProt O76039); conditions: CDKL5; 1 uM; read-out: Percent Control (%)
T2 construct: purchased DiscoverX
T2 sequence (O76039 1-960): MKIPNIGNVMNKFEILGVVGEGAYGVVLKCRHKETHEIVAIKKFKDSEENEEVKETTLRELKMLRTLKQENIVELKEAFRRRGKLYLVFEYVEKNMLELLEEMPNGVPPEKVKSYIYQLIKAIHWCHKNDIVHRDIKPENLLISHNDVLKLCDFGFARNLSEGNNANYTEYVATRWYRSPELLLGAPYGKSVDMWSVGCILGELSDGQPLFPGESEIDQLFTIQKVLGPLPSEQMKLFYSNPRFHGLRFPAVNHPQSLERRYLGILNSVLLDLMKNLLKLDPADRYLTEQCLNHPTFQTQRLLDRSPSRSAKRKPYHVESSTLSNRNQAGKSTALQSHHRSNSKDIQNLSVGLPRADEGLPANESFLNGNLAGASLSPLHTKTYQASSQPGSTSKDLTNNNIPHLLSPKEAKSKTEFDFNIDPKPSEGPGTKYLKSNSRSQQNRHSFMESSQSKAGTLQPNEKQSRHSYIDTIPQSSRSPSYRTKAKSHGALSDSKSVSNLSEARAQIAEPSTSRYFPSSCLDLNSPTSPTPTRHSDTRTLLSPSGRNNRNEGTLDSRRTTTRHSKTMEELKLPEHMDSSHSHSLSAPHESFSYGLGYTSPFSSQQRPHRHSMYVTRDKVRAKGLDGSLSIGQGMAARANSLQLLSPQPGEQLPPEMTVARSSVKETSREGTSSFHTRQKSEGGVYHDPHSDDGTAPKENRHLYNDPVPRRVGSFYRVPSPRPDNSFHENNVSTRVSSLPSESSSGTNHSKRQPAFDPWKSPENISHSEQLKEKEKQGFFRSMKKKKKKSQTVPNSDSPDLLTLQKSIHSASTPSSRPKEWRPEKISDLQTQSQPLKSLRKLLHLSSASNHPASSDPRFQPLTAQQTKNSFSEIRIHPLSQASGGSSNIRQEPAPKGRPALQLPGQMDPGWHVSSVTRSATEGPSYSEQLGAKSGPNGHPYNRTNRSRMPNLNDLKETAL
Protocol: as §1, §2, §3, §4

[3] = molecular target: T3, scanMAX Kinase assay panel (Homo sapiens, UniProt P09619); conditions: PDGFRB; 1 uM; read-out: Percent Control (%)
T3 construct: purchased DiscoverX
Protocol: as §1, §2, §3, §4

[4] = molecular target: T4, scanMAX Kinase assay panel (Homo sapiens, UniProt Q9Y6E0); conditions: MST3; 1 uM; read-out: Percent Control (%)
T4 construct: purchased DiscoverX
Protocol: as §1, §2, §3, §4

[5] = molecular target: T5, scanMAX Kinase assay panel (Homo sapiens, UniProt O94806); conditions: PRKD3; 1 uM; read-out: Percent Control (%)
T5 construct: purchased DiscoverX
T5 sequence (O94806 1-890): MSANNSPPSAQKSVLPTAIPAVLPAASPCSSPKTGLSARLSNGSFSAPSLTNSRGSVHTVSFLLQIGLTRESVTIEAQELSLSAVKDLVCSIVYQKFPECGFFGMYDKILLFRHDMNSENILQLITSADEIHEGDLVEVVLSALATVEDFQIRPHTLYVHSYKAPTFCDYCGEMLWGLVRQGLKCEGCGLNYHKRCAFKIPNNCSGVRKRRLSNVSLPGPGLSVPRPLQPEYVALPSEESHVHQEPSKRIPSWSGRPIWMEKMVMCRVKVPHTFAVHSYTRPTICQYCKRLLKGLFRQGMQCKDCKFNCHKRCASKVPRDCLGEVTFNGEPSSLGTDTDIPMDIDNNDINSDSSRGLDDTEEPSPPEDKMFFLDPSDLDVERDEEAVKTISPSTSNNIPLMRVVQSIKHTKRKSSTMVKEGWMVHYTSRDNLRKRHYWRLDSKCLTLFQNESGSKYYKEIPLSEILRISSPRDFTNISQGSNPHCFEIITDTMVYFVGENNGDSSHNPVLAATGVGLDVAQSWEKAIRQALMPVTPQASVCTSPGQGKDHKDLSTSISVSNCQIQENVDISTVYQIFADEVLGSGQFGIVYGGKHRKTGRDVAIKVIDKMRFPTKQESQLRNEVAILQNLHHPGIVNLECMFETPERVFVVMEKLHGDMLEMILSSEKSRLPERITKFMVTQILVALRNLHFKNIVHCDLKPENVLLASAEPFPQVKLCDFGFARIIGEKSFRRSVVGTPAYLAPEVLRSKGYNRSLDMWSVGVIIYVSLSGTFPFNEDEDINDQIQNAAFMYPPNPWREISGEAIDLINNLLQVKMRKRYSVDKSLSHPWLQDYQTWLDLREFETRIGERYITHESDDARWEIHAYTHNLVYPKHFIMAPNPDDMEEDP
Protocol: as §1, §2, §3, §4

[6] = molecular target: T6, scanMAX Kinase assay panel (Homo sapiens, UniProt Q9BX84); conditions: TRPM6; 1 uM; read-out: Percent Control (%)
T6 construct: purchased DiscoverX
Protocol: as §1, §2, §3, §4

T3 sequence (P09619 33-1106): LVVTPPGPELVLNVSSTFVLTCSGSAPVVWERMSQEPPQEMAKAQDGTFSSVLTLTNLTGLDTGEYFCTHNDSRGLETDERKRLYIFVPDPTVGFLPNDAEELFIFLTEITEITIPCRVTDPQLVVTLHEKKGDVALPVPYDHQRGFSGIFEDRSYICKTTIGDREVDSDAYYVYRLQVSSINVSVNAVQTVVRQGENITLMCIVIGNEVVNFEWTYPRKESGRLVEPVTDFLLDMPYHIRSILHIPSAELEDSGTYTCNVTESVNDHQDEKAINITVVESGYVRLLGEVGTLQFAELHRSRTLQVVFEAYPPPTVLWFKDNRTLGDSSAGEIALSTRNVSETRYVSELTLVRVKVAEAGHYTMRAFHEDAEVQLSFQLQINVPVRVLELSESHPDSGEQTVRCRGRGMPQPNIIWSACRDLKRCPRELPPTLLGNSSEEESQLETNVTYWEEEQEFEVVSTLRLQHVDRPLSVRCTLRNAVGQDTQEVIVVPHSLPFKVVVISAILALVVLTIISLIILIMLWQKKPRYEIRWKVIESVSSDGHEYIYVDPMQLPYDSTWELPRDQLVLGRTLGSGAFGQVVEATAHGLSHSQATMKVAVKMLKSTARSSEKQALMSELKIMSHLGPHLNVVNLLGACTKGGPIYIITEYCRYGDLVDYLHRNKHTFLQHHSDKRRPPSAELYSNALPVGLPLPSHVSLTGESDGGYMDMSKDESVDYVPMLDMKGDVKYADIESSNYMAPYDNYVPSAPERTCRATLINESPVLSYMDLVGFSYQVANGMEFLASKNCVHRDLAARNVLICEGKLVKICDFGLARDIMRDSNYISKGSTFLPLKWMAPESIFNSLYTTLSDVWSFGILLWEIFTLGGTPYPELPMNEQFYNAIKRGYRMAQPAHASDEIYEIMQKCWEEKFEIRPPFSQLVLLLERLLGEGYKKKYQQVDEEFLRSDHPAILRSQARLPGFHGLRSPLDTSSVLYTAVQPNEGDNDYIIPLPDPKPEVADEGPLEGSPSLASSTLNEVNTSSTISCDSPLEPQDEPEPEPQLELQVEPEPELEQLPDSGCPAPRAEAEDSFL
T4 sequence (Q9Y6E0 whole entry): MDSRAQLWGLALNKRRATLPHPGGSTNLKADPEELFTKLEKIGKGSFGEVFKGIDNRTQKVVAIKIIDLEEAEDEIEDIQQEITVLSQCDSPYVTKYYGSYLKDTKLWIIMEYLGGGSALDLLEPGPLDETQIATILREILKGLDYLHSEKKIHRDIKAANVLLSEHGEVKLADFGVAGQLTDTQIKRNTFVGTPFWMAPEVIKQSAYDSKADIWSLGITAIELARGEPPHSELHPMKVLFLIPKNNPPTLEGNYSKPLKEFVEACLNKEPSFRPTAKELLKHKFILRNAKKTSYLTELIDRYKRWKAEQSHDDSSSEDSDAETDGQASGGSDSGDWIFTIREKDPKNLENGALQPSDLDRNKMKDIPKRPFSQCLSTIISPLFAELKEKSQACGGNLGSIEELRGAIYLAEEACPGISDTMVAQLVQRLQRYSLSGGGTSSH
T1 sequence (Q9H2X6 whole entry): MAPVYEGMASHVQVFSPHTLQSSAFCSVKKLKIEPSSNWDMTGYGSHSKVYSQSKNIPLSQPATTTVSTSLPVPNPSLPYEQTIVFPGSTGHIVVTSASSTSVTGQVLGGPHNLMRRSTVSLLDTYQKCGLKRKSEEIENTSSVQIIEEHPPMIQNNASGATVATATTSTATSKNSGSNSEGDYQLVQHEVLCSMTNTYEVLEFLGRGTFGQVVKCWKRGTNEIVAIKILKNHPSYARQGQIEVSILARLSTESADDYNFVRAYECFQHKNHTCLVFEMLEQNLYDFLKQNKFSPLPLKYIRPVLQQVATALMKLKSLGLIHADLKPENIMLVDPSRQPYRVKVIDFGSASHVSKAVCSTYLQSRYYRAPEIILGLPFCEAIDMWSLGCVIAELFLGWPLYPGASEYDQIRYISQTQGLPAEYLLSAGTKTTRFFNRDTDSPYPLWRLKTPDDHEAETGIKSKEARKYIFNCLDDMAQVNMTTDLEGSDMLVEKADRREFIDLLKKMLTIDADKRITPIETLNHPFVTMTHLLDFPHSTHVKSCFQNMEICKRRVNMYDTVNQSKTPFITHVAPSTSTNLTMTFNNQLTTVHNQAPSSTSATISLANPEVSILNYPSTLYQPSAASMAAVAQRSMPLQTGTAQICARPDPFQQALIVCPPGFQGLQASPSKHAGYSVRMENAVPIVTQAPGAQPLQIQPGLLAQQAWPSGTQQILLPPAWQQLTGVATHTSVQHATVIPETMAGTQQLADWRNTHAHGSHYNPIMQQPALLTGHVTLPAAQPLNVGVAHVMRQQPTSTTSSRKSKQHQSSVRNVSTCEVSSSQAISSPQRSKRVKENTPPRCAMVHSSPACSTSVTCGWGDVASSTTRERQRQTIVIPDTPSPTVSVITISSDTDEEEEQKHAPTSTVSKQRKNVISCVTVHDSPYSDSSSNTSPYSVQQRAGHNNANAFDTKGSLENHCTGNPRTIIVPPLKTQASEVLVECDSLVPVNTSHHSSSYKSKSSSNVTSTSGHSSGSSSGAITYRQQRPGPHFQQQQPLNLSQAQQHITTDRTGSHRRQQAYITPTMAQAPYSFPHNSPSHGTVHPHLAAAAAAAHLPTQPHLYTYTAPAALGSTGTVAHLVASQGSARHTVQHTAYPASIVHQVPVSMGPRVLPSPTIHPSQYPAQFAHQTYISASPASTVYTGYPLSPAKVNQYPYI
T6 sequence (Q9BX84 whole entry): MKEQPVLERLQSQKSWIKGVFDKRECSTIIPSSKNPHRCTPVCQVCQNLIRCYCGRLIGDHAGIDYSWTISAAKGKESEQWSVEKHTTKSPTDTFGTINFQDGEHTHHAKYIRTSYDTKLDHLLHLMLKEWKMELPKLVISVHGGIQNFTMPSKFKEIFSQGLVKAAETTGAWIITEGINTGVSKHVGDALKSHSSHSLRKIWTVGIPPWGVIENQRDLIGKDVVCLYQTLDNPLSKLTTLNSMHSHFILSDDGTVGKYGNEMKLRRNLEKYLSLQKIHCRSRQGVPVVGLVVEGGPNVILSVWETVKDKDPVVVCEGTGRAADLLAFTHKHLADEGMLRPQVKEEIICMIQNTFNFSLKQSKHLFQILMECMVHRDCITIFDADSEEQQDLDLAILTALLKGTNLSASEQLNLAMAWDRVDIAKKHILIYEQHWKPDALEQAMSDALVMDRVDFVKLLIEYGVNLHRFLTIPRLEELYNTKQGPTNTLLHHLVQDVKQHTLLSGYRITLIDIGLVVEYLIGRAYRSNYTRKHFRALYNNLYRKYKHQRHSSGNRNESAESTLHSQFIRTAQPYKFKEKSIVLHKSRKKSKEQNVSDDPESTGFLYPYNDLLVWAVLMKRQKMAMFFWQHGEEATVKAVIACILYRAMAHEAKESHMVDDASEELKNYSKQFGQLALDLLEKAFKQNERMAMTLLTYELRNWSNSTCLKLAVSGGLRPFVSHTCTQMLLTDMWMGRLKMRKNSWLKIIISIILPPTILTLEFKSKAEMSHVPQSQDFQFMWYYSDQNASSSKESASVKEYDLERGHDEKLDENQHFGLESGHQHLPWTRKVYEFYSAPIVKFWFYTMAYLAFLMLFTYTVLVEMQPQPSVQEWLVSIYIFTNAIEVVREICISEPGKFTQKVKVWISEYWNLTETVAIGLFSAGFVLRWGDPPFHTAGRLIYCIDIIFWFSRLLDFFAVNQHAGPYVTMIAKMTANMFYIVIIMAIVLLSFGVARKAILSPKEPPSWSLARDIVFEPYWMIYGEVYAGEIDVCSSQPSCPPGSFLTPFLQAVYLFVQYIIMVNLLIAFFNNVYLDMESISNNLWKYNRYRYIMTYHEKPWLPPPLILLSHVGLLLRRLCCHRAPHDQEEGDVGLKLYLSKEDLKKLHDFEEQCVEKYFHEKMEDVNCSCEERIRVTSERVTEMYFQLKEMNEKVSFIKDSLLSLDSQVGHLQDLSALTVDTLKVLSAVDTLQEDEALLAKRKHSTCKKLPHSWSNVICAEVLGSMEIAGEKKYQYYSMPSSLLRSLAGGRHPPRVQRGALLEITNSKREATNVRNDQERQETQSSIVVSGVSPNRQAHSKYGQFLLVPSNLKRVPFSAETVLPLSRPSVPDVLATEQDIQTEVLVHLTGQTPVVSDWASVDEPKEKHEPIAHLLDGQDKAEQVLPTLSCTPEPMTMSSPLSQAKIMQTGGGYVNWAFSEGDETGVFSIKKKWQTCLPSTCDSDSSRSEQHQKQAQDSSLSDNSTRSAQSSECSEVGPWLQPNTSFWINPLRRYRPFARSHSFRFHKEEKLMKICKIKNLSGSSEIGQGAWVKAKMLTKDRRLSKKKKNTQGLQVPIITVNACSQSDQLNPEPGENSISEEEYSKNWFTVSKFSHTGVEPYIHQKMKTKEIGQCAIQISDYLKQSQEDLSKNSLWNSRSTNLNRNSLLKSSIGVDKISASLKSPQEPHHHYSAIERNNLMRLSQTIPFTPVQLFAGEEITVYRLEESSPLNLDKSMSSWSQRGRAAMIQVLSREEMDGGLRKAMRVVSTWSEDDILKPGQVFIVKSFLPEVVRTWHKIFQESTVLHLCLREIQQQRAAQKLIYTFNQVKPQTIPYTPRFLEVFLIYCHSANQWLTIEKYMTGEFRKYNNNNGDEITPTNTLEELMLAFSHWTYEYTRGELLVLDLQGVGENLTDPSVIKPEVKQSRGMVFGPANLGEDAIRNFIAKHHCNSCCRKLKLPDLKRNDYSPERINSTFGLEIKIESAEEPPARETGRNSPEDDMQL

Cc1ccc(C(=O)Nc2ccc(CN3CCN(C)CC3)c(C(F)(F)F)c2)cc1C#Cc1cnc2c(Nc3cnn(C)c3)cccn12 [Example 1, 4-methyl-3-((8-((1-methyl-1H-pyrazol-4-yl)amino)imidazo[1,2-a]pyridin-3-yl)ethynyl)-N-(4-((4-methylpiperazin-1-yl)methyl)-3-(trifluoromethyl)phenyl)benzamide]
remaining binding at 1 µM [1]: 61%
remaining binding at 1 µM [2]: 94%
remaining binding at 1 µM [3]: 0%
remaining binding at 1 µM [4]: 62%
remaining binding at 1 µM [5]: 43%
remaining binding at 1 µM [6]: 100%

Cc1cn(-c2cc(NC(=O)c3ccc(C)c(C#Cc4cnc5c(Nc6cnn(C)c6)cccn45)c3)cc(C(F)(F)F)c2)cn1 [Example 12, 4-methyl-N-(3-(4-methyl-1H-imidazol-1-yl)-5-(trifluoromethyl)phenyl)-3-((8-((1-methyl-1H-pyrazol-4-yl)amino)imidazo[1,2-a]pyridin-3-yl)ethynyl)benzamide]
remaining binding at 1 µM [1]: 100%
remaining binding at 1 µM [2]: 100%
remaining binding at 1 µM [3]: 1%
remaining binding at 1 µM [4]: 86%
remaining binding at 1 µM [5]: 96%
remaining binding at 1 µM [6]: 87%

Cc1ccc(NC(=O)C2(C(=O)Nc3ccc(F)cc3)CC2)cc1C#Cc1cnc2c(Nc3cnn(C(C)C)c3)cccn12 [Example 78]
remaining binding at 1 µM [1]: 100%
remaining binding at 1 µM [2]: 92%
remaining binding at 1 µM [3]: 0%
remaining binding at 1 µM [4]: 100%
remaining binding at 1 µM [5]: 88%
remaining binding at 1 µM [6]: 87%
